{"source": "patent US20150307841A1", "about": "“Composition for Promoting Differentiation and Proliferation of Neural Stem Cell and Neural Precursor Cell” (priority 2014, published 2015)", "key": {"[1]": {"system": "newly born neural precursor cells in hippocampal tissue slices", "assay": "Immunohistochemical analysis of BrdU and subtype markers 4 weeks after oral administration (Experimental Example 2)", "format": "in vivo, rat", "set-up": "Number of BrdU-positive cells and newly born dentate granular cells (DGCs) versus IBO group / Number of cells expressing both NeuN and BrdU versus ibotenic acid-administered group / Cholinergic neurons (total endogenous ChAT-positive cells) at 4 weeks versus 1 week after oral administration: dose or concentration left out as unconfirmed", "source_text": "In order to confirm the survival and differentiation of newly born neural precursor cells 4 weeks after the oral administration of soyasaponin I, it was observed whether the BrdU-expressing cells express a mature neuron marker and cell subtype markers (NeuN, VGluT1, GAD67) simultaneously.\nAfter conducting the 3 behavioral tests, the rats were sacrificed for immunohistochemical analysis. Over 5 animals from each group were used for the immunohistochemical analysis.\nFollowing the same procedure as described in (4) of Experimental Example 2, incubation was performed at 37° C. for 30 minutes in 2 N HCl after permeabilization in 0.5% Triton X-100 for 20 minutes for double staining of BrdU/subtype cell markers ([…], VGluT1, NeuN).\nIn the immunohistochemical analysis, the number of the cells immnunostained against each antibody was counted from 5 or 6 hippocampal coronal sections. For each staining analysis, every fifth cryosections of the hippocampal region of brain tissues (AP: bregma −4.5 to −4.3 mm) were taken for immunostaining. The number of the immnunostained cells was represented as an average of number of cells in the hippocampal region of one brain slice.\nThe number of the VGluT1- and GAD-positive cells in the brain slice samples 1 week and 4 weeks after the administration of soyasaponin I was presented per microscopic field (×400-VGluT1, ×800-GAD67) and the number of the ChAT-positive cells was presented per each hippocampal region (10-12 confocal laser microscopic fields). 5-11 animals were used per group. Western blotted membranes were analyzed using the multi-gauge, bio-imaging program on LAS-4000 Mini (Fujifilm Life Science, Stamford, Conn., USA). Densitometeric analysis of the expression ratios of VGluT1/β-actin, GAD65/67/β-actin and ChAT/β-actin was normalized to the vehicle group."}, "[2]": {"system": "hippocampal neural precursor cells (NPCs)", "assay": "NeuN, GFAP, TUJ1, MAP2 immunostaining of cultured embryonic neural precursor cells (differentiation, neurite outgrowth)", "format": "cell-based, rat", "source_text": "Pregnant Sprague-Dawley rats purchased from Orient Animal Breeding Center (a branch of Charles River Laboratories, Gyeonggi-do, Korea) were sacrificed by exposing to CO2 inhalation. Hippocampal neural precursor cells (NPCs) were isolated from the brain of the E16 rat embryo according to the method of Shin M H et al. (Exp Mol Med, 2002) with slight modifications.\nBriefly, hippocampi were aseptically dissected from the embryonic forebrain, mechanically dissociated in Ca^2+/Mg^2+-free Hank's balanced salt solution (HBSS) and then plated at 7×10^5 cells/cm^2 on 60-mm dishes pre-coated with 15 μg/mL poly-L-ornithine and 1 μg/mL fibronectin. The neural precursor cells were cultured in serum-free N2 media supplemented with 10 ng/mL bFGF in 5% CO2 for 3 days and then detached using 0.05% trypsin-ethylenediaminetetraacetic acid (EDTA). The neural precursor cells were plated on 12-mm cover glasses (Bellco Co., Vineland, N.J., USA) and cultured one more day in N2 media supplemented with 10 ng/mL bFGF in 5% CO2 (primary culturing).\nFollowing the primary culturing in (1), in order to confirm the differentiation of the neural precursor cells and the proliferation of the differentiated neurons, the neural precursor cells were cultured on 12-mm cover glasses (Bellco Co., Vineland, N.J., USA) for 4 days in bFGF-free N2 media with 2×10^4 cells/well. For double immunostaining of GFAP and NeuN, and TUJ1 and MAP2, the cells were cultured for only 2 days.\nThe immunostaining was carried out as previously described (Donaldson J G (2001) Immunofluorescence staining Curr Protoc Cell Biol Chapter 4: Unit 4.3) with minor modifications.\nOn the next day, after adding a vehicle (dimethyl sulfoxide) or soyasaponin I at different concentrations of 0.5, 1 or 2 μM to the media, the cells were fixed with 4% PFA in PBS at 4° C. for 4-15 minutes. The cells were permeabilized with 0.5% Triton X-100 for 5 minutes and blocked with 5% normal serum (a mixture of normal donkey, goat and horse sera) for 1 hour at room temperature.\nThe cells were incubated with anti-GFAP (1:1,000, Chemicon), anti-NeuN (1:500, Chemicon), anti-MAP2 (1:2,500, Sigma) and anti-TUJ1 (1:2,000, Sigma) primary antibodies for 1 hour at room temperature. The secondary antibodies and scanning method used were the same as in (2).\nCell counting was performed as reported by Park H J et al. (Phytother Res, 2008). The average length per neurite of the MAP2-positive cells with longer neurites more than double the cell body width was counted from 10-12 confocal laser microscopic fields that were randomly chosen per the cultured cover glass. Primary branches, which directly outgrow from the cell body, were counted when the length of the primary branches was 2 times or longer than the cell body width. All secondary and tertiary branches that come from the primary and secondary branches, respectively, were also counted. The numbers of the branches were also counted from 10-12 confocal laser microscopic fields that were randomly chosen per each cover glass on which the neuronal cells were grown and immunostained with MAP2 antibodies. Analysis of the neurite length and the numbers of the branches was performed with LSM Image Examiner ver. 2.80 (Carl Zeiss)."}, "[3]": {"details": "4 weeks after oral administration"}, "[4]": {"details": "soyasaponin I 10 mg/g group (so in the source), 4 weeks after oral administration"}, "[5]": {"details": "soyasaponin I group (so in the source), 4 weeks after oral administration"}}, "data": [{"smiles": "C[C@@H]1O[C@@H](O[C@H]2[C@H](O[C@H]3[C@H](O[C@H]4CC[C@@]5(C)[C@@H](CC[C@]6(C)[C@@H]5CC=C5[C@@H]7CC(C)(C)C[C@@H](O)[C@]7(C)CC[C@]56C)[C@@]4(C)CO)O[C@H](C(=O)O)[C@@H](O)[C@@H]3O)O[C@H](CO)[C@H](O)[C@@H]2O)[C@H](O)[C@H](O)[C@H]1O", "note": "[soyasaponin I]", "values": [{"measurement": "Number of BrdU-positive cells in hippocampal tissue slices at 4 weeks versus 1 week after oral administration", "setting": "[1]; [3]", "value": "reduced to less than half"}, {"measurement": "Ratio of the BrdU-positive cells that express VGluT1, NeuN or GAD67 at the same time", "setting": "[1]; [3]", "value": "no significant difference"}, {"measurement": "BrdU-positive cells among hippocampal cells expressing GFAP, TH and ChAT", "setting": "[1]; 4 weeks after oral administration, any group", "value": "barely detected"}, {"measurement": "Number of BrdU-positive cells expressing GAD67 versus IBO group", "setting": "[1]; [4]", "value": 2.8, "unit": "times"}, {"measurement": "Number of BrdU-positive cells expressing VGluT1 versus IBO group", "setting": "[1]; [4]", "value": "higher"}, {"measurement": "Cholinergic neurons (total endogenous ChAT-positive cells) at 4 weeks versus 1 week after oral administration", "setting": "[1]; soyasaponin I group (so in the source)", "value": "maintained at a similar level"}, {"measurement": "Number of BrdU-positive cells and newly born dentate granular cells (DGCs) versus IBO group", "setting": "[1]; [5]", "value": "approximately 3.5 fold"}, {"measurement": "Number of cells expressing both NeuN and BrdU versus ibotenic acid-administered group", "setting": "[1]; [5]", "value": 3, "unit": "times"}, {"measurement": "Neurite length (MAP2) increase compared to the normal group", "setting": "[2]; 1 μM soyasaponin I for 4 days", "value": 2.2, "unit": "fold"}, {"measurement": "Number of NeuN-expressing cells (differentiation into mature neurons)", "setting": "[2]; 0.5 and 1 μM, concentration-dependent", "value": "increased"}, {"measurement": "Astrocytes expressing glial fibrillary acidic protein (GFAP) in the cultures", "setting": "[2]; hippocampal neural precursor cell cultures", "value": "hardly observed"}, {"measurement": "Increase in TUJ1-expressing cells compared to the normal group", "setting": "[2]; soyasaponin I 0.5 μM group", "value": "about 4 fold"}, {"measurement": "Average neurite length", "setting": "[2]; soyasaponin I 1 μM group", "value": "markedly increased"}, {"measurement": "Numbers of both primary and secondary branches", "setting": "[2]; soyasaponin I 1 μM group", "value": "markedly increased"}]}]}
